From US7915268B2, “8-substituted 2-(benzimidazolyl)purine derivatives for immunosuppression” (Wyeth LLC, priority 2006, dated 2011)

target: T1, Jak3 (Homo sapiens, UniProt P52333); assay: Jak3 Kinase Assay (HTRF, GST-Jak3 catalytic domain); type: biochemical; settings: 1 μM ATP, 60-min incubation, read-out: Jak 3 (Converted)
T1 construct: catalytic domain of Jak3 (508aa to 1124aa); made in house; host or cells: Sf9 insect cells (baculovirus, pFastBac 1)
T1 sequence (P52333 508-1124): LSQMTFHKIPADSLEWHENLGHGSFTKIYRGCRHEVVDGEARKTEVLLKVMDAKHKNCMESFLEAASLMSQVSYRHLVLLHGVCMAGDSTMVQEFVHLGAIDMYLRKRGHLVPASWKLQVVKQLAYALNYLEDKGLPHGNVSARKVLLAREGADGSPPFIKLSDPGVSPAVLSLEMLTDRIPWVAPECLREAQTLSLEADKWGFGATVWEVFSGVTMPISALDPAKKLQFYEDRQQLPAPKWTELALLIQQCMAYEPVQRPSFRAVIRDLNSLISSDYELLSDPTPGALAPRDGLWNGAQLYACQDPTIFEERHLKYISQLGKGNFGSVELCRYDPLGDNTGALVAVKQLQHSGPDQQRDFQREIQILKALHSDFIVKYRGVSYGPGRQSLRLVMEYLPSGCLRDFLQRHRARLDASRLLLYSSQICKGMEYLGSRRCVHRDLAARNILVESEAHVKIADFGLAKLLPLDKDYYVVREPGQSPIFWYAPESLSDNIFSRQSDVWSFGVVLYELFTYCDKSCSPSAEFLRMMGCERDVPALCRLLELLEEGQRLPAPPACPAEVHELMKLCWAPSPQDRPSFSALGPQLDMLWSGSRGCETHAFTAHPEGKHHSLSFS
Description: Human Jak3 cDNA was amplified by PCR. A fragment encoding the catalytic domain of Jak3 (508aa to 1124aa) was ligated with GST at 5′ end. This fused GST-Jak3 DNA fragment was cloned into the EcoRI site of the donor plasmid pFastBac 1 (Life Technologies #10359-016). The transformation, transposition, and transfection of insect cells (Sf9) were performed according to the manufacture's instructions. The cell lysate containing recombinant GST-Jak3 was used in the kinase assay. Anti-GST antibody (10 μg/ml, Sigma #G1417) was coated onto a 384-well plate at 4° C. overnight. Cell lysate containing GST-Jak3 (1:100 dilution) was added to the anti-GST coated plates, and GST-Jak3 was captured by immobilized anti-GST antibody. Testing compounds and substrate mix (50 mM HEPES, pH 7, 0.5 mM Na3VO4, 25 mM MgCl2, 1 mM DTT, 0.005% BSA, 1 μM ATP, and 4.5 μg/ml biotinyl poly-Glu, Ala, Tyr) were added to the plate to initiate the reaction. After a 60-min incubation, the reaction was stopped by 4 mM EDTA, and phosphorylation of biotinyl poly-Glu, Ala, Tyr was detected using 17 μg/ml Cy5-streptavidin (Amersham, #PA92005) and 2.7 μg/ml Europium-conjugated anti-phosphotyrosine antibody (PerkinElmer #AD0069) using homogeneous time-resolved fluorescence (HTRF) technology.

| IC50 [nM] | Compound |
| --- | --- |
| < 100 | Fc1ccc2ncn(-c3ncc4c(n3)C([C@@H]3CCOc5ccccc53)C(CCl)=N4)c2c1 (some centres unmarked) [Example 77] |
| < 100 | N#Cc1ccc2ncn(-c3ncc4nc(NC5CCCC5)n([C@@H]5CCOc6ccccc65)c4n3)c2c1 [Example 98] |
| > 1000 | COCCCn1c(C)nc2cnc(-n3cnc4ccccc43)nc21 [Example 84] |
| 100 to 1000 | Fc1cccc2c1COC[C@H]2n1c(-c2ccccc2)nc2cnc(-n3cnc4ccccc43)nc21 [Example 87] |
| < 100 | CSc1nc2cnc(-n3cnc4ccc(F)cc43)nc2n1[C@@H]1CCOc2c(F)cccc21 [Example 111] |
| < 100 | Fc1ccc2ncn(-c3ncc4nc(Cl)n([C@@H]5CCOc6c(F)cccc65)c4n3)c2c1 [Example 102, 8-chloro-2-(6-fluoro-1H-benzo[d]imidazol-1-yl)-9-((R)-8-fluorochroman-4-yl)-9H-purine] |
| > 1000 | N#Cc1cccc(Nc2nc3cnc(-n4cnc5ccc(Cl)cc54)nc3n2C2CCOCC2)c1 [Example 110] |
| < 100 | N#Cc1ccc2ncn(-c3ncc4nc(Nc5ccc(S(N)(=O)=O)cc5)n(C5CCOCC5)c4n3)c2c1 [Example 105, 4-(2-(6-cyano-1H-benzo[d]imidazol-1-yl)-9-(tetrahydro-2H-pyran-4-yl)-9H-purin-8-ylamino)benzenesulfonamide] |
| < 100 | Cc1nc2cnc(-n3cnc4ccc(C#N)cc43)nc2n1[C@@H]1CC[C@@H](O)c2ccccc21 [Example 100, 3-(9-((1R,4R)-4-Hydroxy-1,2,3,4-tetrahydronaphthalen-1-yl)-8-methyl-9H-purin-2-yl)-3H-benzo[d]imidazole-5-carbonitrile] |
| > 1000 | Cc1nc2cnc(-n3cnc4ccccc43)nc2n1Cc1ccccc1 [Example 82] |
| < 100 | Cc1nc2cnc(-n3cnc4ccc(OC(F)(F)F)cc43)nc2n1C1CCOCC1 [Example 76, 8-Methyl-9-(tetrahydro-2H-pyran-4-yl)-2-(6-(trifluoromethoxy)-1H-benzo[d]imidazol-1-yl)-9H-purine] |
| 100 to 1000 | Fc1ccc(-c2nc3cnc(-n4cnc5ccc(F)cc54)nc3n2C2CCOCC2)nc1 [Example 68] |
| < 100 | CCNc1nc2cnc(-n3cnc4ccc(C#N)cc43)nc2n1[C@@H]1CCOc2ccccc21 [Example 97] |
| 100 to 1000 | c1ccc(-c2nc3cnc(-n4cnc5ccccc54)nc3n2C2CCOCC2)cc1 [Example 91] |
| < 100 | Clc1ccc2ncn(-c3ncc4nc(-c5cncnc5)n(C5CCOCC5)c4n3)c2c1 [Example 65] |
| 100 to 1000 | N#Cc1ccc2ncn(-c3ncc4nc(Nc5cccc(C(F)(F)F)c5)n([C@@H]5CCOc6ccccc65)c4n3)c2c1 [Example 106] |

| IC50 [nM] | Compound |
| --- | --- |
| < 100 | Cc1nc2cnc(-n3cnc4ccccc43)nc2n1C1CCOCC1 [Example 83] |
| 100 to 1000 | CO[C@H]1CC[C@H](n2c(C)nc3cnc(-n4cnc5ccc(Cl)cc54)nc32)CC1 [Example 73] |
| < 100 | Cc1nc2cnc(-n3cnc4ccc(F)cc43)nc2n1[C@@H]1CCOc2ccccc21 [Example 78] |
| < 100 | Nc1ncc(-c2nc3cnc(-n4cnc5ccc(F)cc54)nc3n2C2CCOCC2)cn1 [Example 59] |
| < 100 | N#Cc1ccc2ncn(-c3ncc4nc(Nc5cccnc5)n(C5CCOCC5)c4n3)c2c1 [Example 107] |
| < 100 | CCc1nc2cnc(-n3cnc4ccc(F)cc43)nc2n1[C@@H]1CCOc2ccccc21 [Example 79] |
| > 1000 | Fc1ccc2ncn(-c3ncc4nc(-c5cccc(Br)c5)n(C5CCOCC5)c4n3)c2c1 [Example 57] |
| 100 to 1000 | Fc1ccc2ncn(-c3ncc4nc(-c5cccc(Cl)c5)n(C5CCOCC5)c4n3)c2c1 [Example 60] |
| < 100 | Fc1ccc2ncn(-c3ncc4nc(-c5ccncn5)n(C5CCOCC5)c4n3)c2c1 [Example 69] |
| < 100 | N#Cc1ccc2ncn(-c3ncc4nc(Cl)n(C5CCOCC5)c4n3)c2c1 [Example 101] |
| < 100 | N#Cc1ccc2ncn(-c3ncc4nc(NCCN5CCCCC5)n(C5CCOCC5)c4n3)c2c1 [Example 94] |
| > 1000 | Fc1ccc2ncn(-c3ncc4nc(-c5cccc(OC(F)(F)F)c5)n(C5CCOCC5)c4n3)c2c1 [Example 58] |
| < 100 | Cc1nc2cnc(-n3cnc4ccccc43)nc2n1[C@@H]1CCOc2c(F)cccc21 [Example 81, 2-(1H-benzo[d]imidazol-1-yl)-9-((R)-8-fluorochroman-4-yl)-8-methyl-9H-purine] |
| < 100 | Fc1ccc2ncn(-c3ncc4nc(-c5ccc(F)nc5)n([C@@H]5CCOc6c(F)cccc65)c4n3)c2c1 [Example 103, 2-(6-fluoro-1H-benzo[d]imidazol-1-yl)-9-((R)-8-fluorochroman-4-yl)-8-(6-fluoropyridin-3-yl)-9H-purine] |
| < 100 | N#Cc1ccc2ncn(-c3ncc4nc(NCCN5CCOCC5)n(C5CCOCC5)c4n3)c2c1 [Example 95] |

Continued, molecule first:

| Compound | IC50 [nM] |
| --- | --- |
| CCCc1nc2cnc(-n3cnc4ccc(C#N)cc43)nc2n1C1CCOc2ccc(F)cc21 (centres unmarked) [Example 22] | < 100 |
| Cc1ccc(-c2nc3cnc(-n4cnc5ccc(F)cc54)nc3n2C2CCOCC2)o1 [Example 52] | 100 to 1000 |
| Cc1cccc(-c2nc3cnc(-n4cnc5ccc(F)cc54)nc3n2C2CCOCC2)n1 [Example 41] | > 1000 |
| CC(=O)Nc1ccc(-c2nc3cnc(-n4cnc5ccc(C#N)cc54)nc3n2C2CCOCC2)cc1 [Example 7] | < 100 |
| Cc1nc2cnc(-n3cnc4ccc(C#N)cc43)nc2n1C1CCOCC1 [Example 25, 3-(8-Methyl-9-(tetrahydro-2H-pyran-4-yl)-9H-purin-2-yl)-3H-benzo[d]imidazole-5-carbonitrile] | < 100 |
| N#Cc1ccc2ncn(-c3ncc4nc(-c5cncnc5)n([C@@H]5CCOc6ccc(F)cc65)c4n3)c2c1 [Example 2] | < 100 |
| N#Cc1ccc2ncn(-c3ncc4nc(-c5cccnc5)n([C@@H]5CCOc6c(F)cccc65)c4n3)c2c1 [Example 5] | < 100 |
| CC(C)Sc1nccc(-c2nc3cnc(-n4cnc5ccc(C#N)cc54)nc3n2[C@@H]2CCOc3c(F)ccc(F)c32)n1 [Example 20] | 100 to 1000 |
| COCCC(C)n1c(-c2c[nH]c3ccccc23)nc2cnc(-n3cnc4ccc(F)cc43)nc21 (centres unmarked) [Example 27] | 100 to 1000 |
| CC(C)(C)c1nc2cnc(-n3cnc4ccc(F)cc43)nc2n1C1CCOCC1 [Example 34] | < 100 |
| Fc1ccc2ncn(-c3ncc4nc(-c5cnc[nH]5)n(C5CCOCC5)c4n3)c2c1 [Example 30] | 100 to 1000 |
| N#Cc1ccc2ncn(-c3ncc4nc(-c5cncnc5)n([C@@H]5CCOc6c(F)cc(F)cc65)c4n3)c2c1 [Example 15] | < 100 |
| CO[C@H]1CC[C@H](n2c(C)nc3cnc(-n4cnc5ccc(OC(F)(F)F)cc54)nc32)CC1 [Example 26] | 100 to 1000 |
| Fc1ccc2ncn(-c3ncc4nc(-c5ccco5)n(C5CCOCC5)c4n3)c2c1 [Example 35] | < 100 |
| Cc1ccccc1-c1nc2cnc(-n3cnc4ccc(C#N)cc43)nc2n1C1CCOCC1 [Example 3] | 100 to 1000 |
| Fc1ccc2ncn(-c3ncc4nc(-c5ccc(F)nc5)n(C5CCOCC5)c4n3)c2c1 [Example 46] | < 100 |
| N#Cc1ccc2ncn(-c3ncc4nc(-c5cncnc5)n(C5CCOCC5)c4n3)c2c1 [Example 1] | < 100 |
| N#Cc1ccc2ncn(-c3ncc4nc(-c5cccc(O)c5)n(C5CCOCC5)c4n3)c2c1 [Example 8] | < 100 |
| COC1CCN([C@H]2C(C)=Nc3cnc(-n4cnc5ccc(F)cc54)nc32)CC1 [Example 21] | 100 to 1000 |
| Oc1ccc(-c2nc3cnc(-n4cnc5ccc(F)cc54)nc3n2C2CCOCC2)cc1 [Example 54] | 100 to 1000 |
| N#Cc1ccc2ncn(-c3ncc4nc(-c5cnc(O)nc5O)n(C5CCOCC5)c4n3)c2c1 [Example 10] | < 100 |
| CO[C@H]1CC[C@H](n2c(-c3cncnc3)nc3cnc(-n4cnc5ccc(Cl)cc54)nc32)CC1 [Example 29] | 100 to 1000 |
| COc1cccc(-c2nc3cnc(-n4cnc5ccc(C#N)cc54)nc3n2C2CCOCC2)c1 [Example 4] | 100 to 1000 |
| N#Cc1ccc2ncn(-c3ncc4nc(-c5cnc(N)nc5)n(C5CCOCC5)c4n3)c2c1 [Example 9] | < 100 |
| COc1ccc(-c2nc3cnc(-n4cnc5ccc(C#N)cc54)nc3n2C2CCOCC2)cc1 [Example 19] | 100 to 1000 |
